In US20260167656A1, “PHOSPHORAMIDATE COMPOUNDS AND USES THEREOF” (ALLORION THERAPEUTICS INC, priority 2022, published 2026) one finds IC50 data, which are given here for 43 compounds.

The test system of assay [1] is non-small cell lung cancer cell line H460. In words: In vitro human cancer cell line cytotoxicity (proliferation) assay in H460, CellTiter-Glo, 72 hours. The class given is cell-based. The following applies: H460 cells, DMSO condition (no AKR1C3 inhibitor), read-out: CTG H460: Avg IC50 (nM) [Assay Condition: DMSO]. An outline of the steps: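 IC50s in nM come from CellTiter-Glo viability read after 72 h of compound exposure. Compounds went in from 10 mM DMSO stocks onto H460 cells, which had been plated at 3×10^3 per well and grown 24 h beforehand at 37 °C, 5% CO2.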
For orientation: ATP-based viability assays read luminescence as a measure of living cells.

The test system is the same in assay [2]. In words: H460 proliferation assay in the presence of 3 uM ASP9521 (AKR1C3 specific inhibitor). As to conditions: H460 cells, CellTiter-Glo, 72 hours, in the presence of 3 uM ASP9521 added 4 hours prior to compounds; read-out: CTG H460: Avg IC50 (nM) [Assay Condition: ASP9521]. The class given is cell-based, human. An outline of the steps:
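AKR1C3 blocked with 3 uM ASP9521 given 4 h ahead of test compounds. H460 cells, plated 24 h earlier, were then treated for 72 h at 37 °C in 5% CO2. CellTiter-Glo luminescence gave viability.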

Take `CC(OP(=O)(N1CC1)N1CC1)c1cc2cc(Oc3cccc(-c4ccccn4)c3)c([N+](=O)[O-])cc2o1` (centres unmarked) [Example 543]: the results for the half-maximal inhibitory concentration (IC50) in assay [1] and in assay [2] were < 10 nM and 2230 nM, respectively.

Take `O=[N+]([O-])c1ccc2c(c1Oc1ccc(F)c(OC(F)F)c1)CCC2OP(=O)(N1CC1)N1CC1` (racemic) [Example 475]: the IC50 in assay [1] was < 10 nM; in assay [2], 509 nM.

On to `O=[N+]([O-])c1ccc2c(c1Oc1ccc(-c3ccc(Cl)cc3)cc1)CCC2OP(=O)(N1CC1)N1CC1` (centres unmarked) [Example 44], for which the IC50 in assay [1] is ≥ 100 nM; in assay [2], 1940 nM.

On to `O=[N+]([O-])c1ccc2c(c1Oc1cccc(-c3c(F)cnn3CCO)c1)CC[C@@H]2OP(=O)(N1CC1)N1CC1` [Example 371], for which the IC50 was < 10 nM in assay [1] (Homo sapiens, NCI-H460, 72 h) and 591 nM in assay [2].

As for `Cn1c(-c2cccc(Oc3c([N+](=O)[O-])ccc4c3CCC4OP(=O)(N3CC3)N3CC3)c2)cccc1=O` (centres unmarked) [Example 75], the IC50 was 10 to 50 nM in assay [1] and 2720 nM in assay [2].

As to `O=[N+]([O-])c1cc2oc(COP(=O)(N3CC3)N3CC3)cc2cc1Oc1ccnc(-c2ccccc2)c1` [Example 538], the IC50 in assay [1] (Homo sapiens, NCI-H460, 72 h) was < 10 nM; in assay [2], 711 nM.

In the case of `O=[N+]([O-])c1ccc2c(c1Oc1ccnc(C3CC3)c1)CCC2OP(=O)(N1CC1)N1CC1` (racemic) [Example 312], the results for the concentration for half-maximal inhibition (IC50) in assay [1] and in assay [2] were < 10 nM and 312 nM, respectively.

For the compound `O=[N+]([O-])c1ccc2c(c1Oc1cccc(C3CC3)c1)CCC2OP(=O)(N1CC1)N1CC1` (centres unmarked) [Example 317], the IC50 in assay [1] was < 10 nM; in assay [2], 1010 nM.

For the compound `O=[N+]([O-])c1ccc2c(c1Oc1cccc(OC3COC3)c1)CCC2OP(=O)(N1CC1)N1CC1` (racemic) [Example 465], the IC50 in assay [1] is < 10 nM; in assay [2], 705 nM.

With `O=[N+]([O-])c1ccc2c(c1Oc1cccc(-n3ncnn3)c1)CC[C@@H]2OP(=O)(N1CC1)N1CC1` [Example 436], the IC50 was < 10 nM in assay [1] (Homo sapiens, NCI-H460, 72 h) and 138 nM in assay [2].

Consider `O=C1c2cc(Oc3cc4c(cc3[N+](=O)[O-])OCCC4OP(=O)(N3CC3)N3CC3)ccc2CN1C1CC1` (single isomer, unassigned) [Example 203], for which the IC50 in assay [1] (Homo sapiens, NCI-H460, 72 h) was < 10 nM; in assay [2] it was 959 nM.

Consider `CNC(=O)c1ccc(Oc2c([N+](=O)[O-])ccc3c2CCC3OP(=O)(N2CC2)N2CC2)cc1` (centres unmarked) [Example 36], for which the concentration for half-maximal inhibition (IC50) in assay [1] (Homo sapiens, NCI-H460, 72 h) was 10 to 50 nM; in assay [2], 527 nM.

On to `COc1ccn(Cc2cc(C(C)OP(=O)(N3CC3)N3CC3)ccc2[N+](=O)[O-])c(=O)c1` (single isomer, unassigned) [Example 2], for which the concentration for half-maximal inhibition (IC50) was ≥ 100 nM in assay [1] (Homo sapiens, NCI-H460, 72 h) and > 10000 nM in assay [2].

Consider `CC(OP(=O)(N1C[C@@H]1C)N1C[C@@H]1C)c1ccc([N+](=O)[O-])c(Oc2ccc(C(=O)N(C)C)cc2)c1` (some centres unmarked) [Example 214], for which the IC50 in assay [1] was < 10 nM; in assay [2], 913 nM.

In the case of `O=C(c1ccc(Oc2cc3c(cc2[N+](=O)[O-])CCC3OP(=O)(N2CC2)N2CC2)cc1)N1CCOCC1` (centres unmarked) [Example 160], the IC50 in assay [1] (Homo sapiens, NCI-H460, 72 h) is < 10 nM; in assay [2] it was 270 nM.

With `O=[N+]([O-])c1ccc2c(c1Oc1ccc(-c3ccc(F)cn3)cc1)CCC2OP(=O)(N1CC1)N1CC1` (racemic) [Example 276], the IC50 in assay [1] was < 10 nM; in assay [2] it was 1340 nM.

As for `O=[N+]([O-])c1ccc2c(c1Oc1cccc(-c3ccnn3CCO)c1)CC[C@@H]2OP(=O)(N1CC1)N1CC1` [Example 351], the IC50 in assay [1] (Homo sapiens, NCI-H460, 72 h) was < 10 nM; in assay [2] it was 1570 nM.

Turning to `Cc1coc(-c2ccc(Oc3c([N+](=O)[O-])ccc4c3CC[C@@H]4OP(=O)(N3CC3)N3CC3)cc2)n1` [Example 291], the half-inhibitory concentration (IC50) was < 10 nM in assay [1] (Homo sapiens, NCI-H460, 72 h) and 1970 nM in assay [2].

For `O=[N+]([O-])c1ccc2c(c1Oc1cccc(-c3ccccn3)c1)CC[C@@H]2OP(=O)(N1CC1)N1CC1` [Example 297], the IC50 was < 10 nM in assay [1] (Homo sapiens, NCI-H460, 72 h) and 1300 nM in assay [2].

Turning to `CC(OP(=O)(N1CC1)N1CC1)c1ccc([N+](=O)[O-])c(Cn2cc(C(=O)N(C)C)ccc2=O)c1` (centres unmarked) [Example 6], the IC50 in assay [1] (Homo sapiens, NCI-H460, 72 h) was ≥ 100 nM; in assay [2], > 10000 nM.

In the case of `O=[N+]([O-])c1cc2oc(COP(=O)(N3CC3)N3CC3)cc2cc1Oc1ccc(-c2ccccc2)cc1` [Example 230, (5-([1,1′-biphenyl]-4-yloxy)-6-nitrobenzofuran-2-yl)methyl di(aziridin-1-yl)phosphinate], the IC50 in assay [1] (Homo sapiens, NCI-H460, 72 h) was < 10 nM; in assay [2], 846 nM.

As to `Cn1cnc2ccc(Oc3cc4c(cc3[N+](=O)[O-])CCC4OP(=O)(N3CC3)N3CC3)cc2c1=O` (centres unmarked) [Example 195], the values for the IC50 in assay [1] and in assay [2] were 10 to 50 nM and 4980 nM, respectively.

Take `O=[N+]([O-])c1ccc2c(c1Oc1cccc(OC(F)(F)F)c1)CC[C@@H]2OP(=O)(N1CC1)N1CC1` [Example 449]: the IC50 in assay [1] is < 10 nM; in assay [2] it was 570 nM.

For `O=C(c1cccc(Oc2c([N+](=O)[O-])ccc3c2CCC3OP(=O)(N2CC2)N2CC2)c1)N1CCCCC1` (single isomer, unassigned) [Example 69], the figures for the half-maximal inhibitory concentration (IC50) in assay [1] and in assay [2] were < 10 nM and 573 nM, respectively.

For `COc1ccc(Oc2c([N+](=O)[O-])ccc3c2CC[C@@H]3OP(=O)(N2CC2)N2CC2)cc1-c1ncc(F)cn1` [Example 293, (S)-4-(3-(5-fluoropyrimidin-2-yl)-4-methoxyphenoxy)-5-nitro-2,3-dihydro-1H-inden-1-yl di(aziridin-1-yl)phosphinate], the concentration for half-maximal inhibition (IC50) is < 10 nM in assay [1] (Homo sapiens, NCI-H460, 72 h) and 1050 nM in assay [2].

Regarding `O=[N+]([O-])c1ccc2c(c1Oc1ccc(F)c(-c3ccccc3)c1)CC[C@@H]2OP(=O)(N1CC1)N1CC1` [Example 314], the 50% inhibitory concentration (IC50) was < 10 nM in assay [1] (Homo sapiens, NCI-H460, 72 h) and 1590 nM in assay [2].

As for `O=[N+]([O-])c1ccc2c(c1Oc1ccc(O)c(-c3ncccn3)c1)CC[C@@H]2OP(=O)(N1CC1)N1CC1` [Example 341], the IC50 in assay [1] (Homo sapiens, NCI-H460, 72 h) was < 10 nM; in assay [2] it was 1920 nM.

As to `O=C(c1cc(Oc2c([N+](=O)[O-])ccc3c2CCC3OP(=O)(N2CC2)N2CC2)ccc1F)N1CCC1` (racemic) [Example 256], the half-maximal inhibitory concentration (IC50) in assay [1] is < 10 nM; in assay [2], 1240 nM.

In the case of `Cn1ccc2cc(F)c(Oc3c([N+](=O)[O-])ccc4c3CCC4OP(=O)(N3CC3)N3CC3)cc21` (centres unmarked) [Example 402], the IC50 in assay [1] was < 10 nM; in assay [2], 712 nM.

In the case of `Cn1nnc(-c2cc(Oc3c([N+](=O)[O-])ccc4c3CC[C@@H]4OP(=O)(N3CC3)N3CC3)ccc2F)n1` [Example 355], the IC50 was < 10 nM in assay [1] (Homo sapiens, NCI-H460, 72 h) and 1130 nM in assay [2].

Consider `O=C(NC1CCC1)c1ccc(Oc2c([N+](=O)[O-])ccc3c2CCC3OP(=O)(N2CC2)N2CC2)cc1` (centres unmarked) [Example 53], for which the half-maximal inhibitory concentration (IC50) in assay [1] was < 10 nM; in assay [2], 945 nM.

Turning to `O=[N+]([O-])c1ccc2c(c1Oc1ccc(F)c(OC3CCCC3)c1)CCC2OP(=O)(N1CC1)N1CC1` (centres unmarked) [Example 476], the results for the IC50 in assay [1] and in assay [2] were < 10 nM and 1090 nM, respectively.

Regarding `O=C1c2cc(Oc3c([N+](=O)[O-])ccc4c3CC[C@H]4OP(=O)(N3CC3)N3CC3)ccc2CN1C1CC1` (single isomer, unassigned) [Example 38], the IC50 in assay [1] (Homo sapiens, NCI-H460, 72 h) is < 10 nM; in assay [2] it was 537 nM.

As for `CN(C)C(=O)c1cncc(Oc2c([N+](=O)[O-])ccc3c2CC[C@@H]3OP(=O)(N2CC2)N2CC2)c1` [Example 252], the half-maximal inhibitory concentration (IC50) in assay [1] is 10 to 50 nM; in assay [2], 2640 nM.

`CN(C)C(=O)c1cc(Oc2c([N+](=O)[O-])ccc3c2CC[C@@H]3OP(=O)(N2CC2)N2CC2)ccc1F` [Example 255]: the IC50 in assay [1] is < 10 nM; in assay [2], 832 nM.

In the case of `CC(OP(=O)(N1CC1)N1CC1)c1cc2cc(Oc3cccc(C(=O)N(C)C)c3)c([N+](=O)[O-])cc2o1` (single isomer, unassigned) [Example 232], the concentration for half-maximal inhibition (IC50) is 10 to 50 nM in assay [1] (Homo sapiens, NCI-H460, 72 h) and 4110 nM in assay [2].

With `C[C@@H](OP(=O)(N1CC1)N1CC1)c1cc2cc(Oc3ccc4c(c3)OC(F)(F)O4)c([N+](=O)[O-])cc2o1` [Example 550], the 50% inhibitory concentration (IC50) in assay [1] (Homo sapiens, NCI-H460, 72 h) is < 10 nM; in assay [2], 2510 nM.

`O=C(c1cccc(Oc2c([N+](=O)[O-])ccc3c2CCC3OP(=O)(N2CC2)N2CC2)c1)N1CC(F)(F)C1` (centres unmarked) [Example 66]: the IC50 was < 10 nM in assay [1] (Homo sapiens, NCI-H460, 72 h) and 736 nM in assay [2].

Take `Cn1cccc(-c2ccc(Oc3c([N+](=O)[O-])ccc4c3CC[C@H]4OP(=O)(N3CC3)N3CC3)cc2)c1=O` [Example 271]: the results for the IC50 in assay [1] and in assay [2] were < 10 nM and 920 nM, respectively.

In the case of `Cc1nnc(-c2cccc(Oc3c([N+](=O)[O-])ccc4c3CC[C@@H]4OP(=O)(N3CC3)N3CC3)c2)s1` [Example 349], the 50% inhibitory concentration (IC50) in assay [1] (Homo sapiens, NCI-H460, 72 h) was < 10 nM; in assay [2] it was 498 nM.

As to `O=[N+]([O-])c1ccc2c(c1Oc1cccc(OC3CCCC3)c1)CCC2OP(=O)(N1CC1)N1CC1` (racemic) [Example 460], the figures for the 50% inhibitory concentration (IC50) in assay [1] and in assay [2] were < 10 nM and 1230 nM, respectively.

In the case of `Cc1cnc(-c2cccc(Oc3c([N+](=O)[O-])ccc4c3CC[C@@H]4OP(=O)(N3CC3)N3CC3)c2)o1` [Example 295, (S)-4-(3-(5-methyloxazol-2-yl)phenoxy)-5-nitro-2,3-dihydro-1H-inden-1-yl di(aziridin-1-yl)phosphinate], the IC50 in assay [1] (Homo sapiens, NCI-H460, 72 h) is 10 to 50 nM; in assay [2], 3620 nM.

As for `CCc1nsc(-c2cccc(Oc3c([N+](=O)[O-])ccc4c3CC[C@@H]4OP(=O)(N3CC3)N3CC3)c2)n1` [Example 368], the IC50 in assay [1] (Homo sapiens, NCI-H460, 72 h) was 10 to 50 nM; in assay [2], 3360 nM.

The IC50 is the concentration that inhibits the measured activity by half.
